In US9539262B2, “Ophthalmic composition comprising a prostaglandin” (SUN PHARMA ADVANCED RESEARCH COMPANY, LTD., priority 2007, dated 2017):

Test system: New Zealand White Rabbits
Assay: Ocular irritancy potential and systemic toxicity, daily repeated ocular instillation
Type: in vivo
Experimental: The pharmaceutical compositions of the present invention were tested in New Zealand White Rabbits, for ocular irritancy potential and systemic toxicity. The pharmaceutical composition of the present invention and polyethylene glycol hydroxystearate (the excipient) both were tested. The test involved daily repeated ocular instillation for at least 14 days.

How did the “gross or microscopical pathological lesion” value (at least 14 days ocular instillation) turn out when `CC(C)OC(=O)CCC/C=C\C[C@@H]1[C@@H](CC[C@@H](O)CCc2ccccc2)[C@H](O)C[C@@H]1O` [latanoprost, isopropyl-(Z)-7[(1R,2R,3R,5S)3,5-dihydroxy-2-[(3R)-3-hydroxy-5-phenylpentyl]cyclopentyl]-5-heptenoate] was run?
Its value is “did not result into any gross or microscopical pathological lesion”.

What about the “alterations in body weight, % body weight gain, terminal body weight, absolute and relative organ weights, differential cell count of bone marrow, biochemical and hematological parameters” value (at least 14 days ocular instillation, compared to the control group) of the same compound?
Its value is “no statistically significant alterations”.

And the “clinical sign or irritation in the eyes” value (daily repeated ocular instillation for at least 14 days, Solutol HS 15 approximately 47 times HRD, latanoprost approximately 48 times HRD)?
The value was “no clinical sign or irritation in the eyes”.
